Patent publication US20250144087A1, “USE OF VE607 FOR THE TREATMENT OF SARS-COV-2 INFECTIONS AND RELATED DISEASES” (priority 2022, published 2025)

Tests used:
[1] = tested on: pseudoviral particles expressing the Spike from SARS-CoV-2; assay: microbe, parasite or virus in culture; type: cell-based
SARS-CoV-2 RBD = molecular target: T1, SARS-CoV-2 RBD (Severe acute respiratory syndrome coronavirus 2, UniProt P0DTC2); type: binding
T1 construct: hexahistidine (C); made in house; host or cells: FreeStyle 293 F cells

[2] = tested on: SARS-CoV-2 S glycoprotein
[3] = tested on: pseudoviral particles bearing the SARS-CoV-1 Spike; assay: microbe, parasite or virus in culture; type: cell-based; conditions: Severe acute respiratory syndrome coronavirus, HEK-293T
VERO-E6 cells = assay: Toxicity on VERO-E6 cells, AquaVivid staining; conditions: concentrations up to 100 μM
[4] = tested on: pseudoviral particles bearing the VSV-G; assay: microbe, parasite or virus in culture; type: cell-based; conditions: Vesicular stomatitis virus, HEK-293T

In the case of `O[C@H](COc1cccc(OC[C@H](O)CN2CCCCC2)c1)CN1CCCCC1` [(R,S)-VE607], the “fold less potent than the two other enantiomers in SARS-CoV-2 pseudoviral inhibition” value ([1]; SARS-CoV-2 S pseudoviral particles) is reported as “about 2 fold”.
`CN1CCN(c2ccc(CNC(=O)c3ccno3)cc2)CC1` [SSAA09E2, reference compound] was tested, and the “effect on the infection of pseudoviral particles” value [1] was “no effect” and the “ΔTm (change of melting temperature of RBD)” value (SARS-CoV-2 RBD) was −0.7 °C.
With `C=CCC(/C=C/OCC(O)CN(CC)CCC)OCC(O)CN(CC)CCC` (stereo not shown) [VE607] the IC50 ([1]; Severe acute respiratory syndrome coronavirus 2, HEK-293T) was 3.06 µM, the “effect on Spike conformational landscape (up/down)” value [2] was “stabilized the “up” conformation” and the IC50 [3] was 1.47 µM. The toxicity (VERO-E6 cells) was “no toxicity was observed”, the IC50 [4] was over 100 µM and the “ΔTm (change of melting temperature of RBD)” value (SARS-CoV-2 RBD) was −2.3 °C.
For sACE2, the “effect on Spike conformational landscape (up/down)” value [2] was “shifted the conformational landscape of the Spike to the “up” conformation”.
